According to ChEMBL document CHEMBL1155559, “Hepatoprotective diastereomeric lignans from Saururus chinensis herbs” (J Nat Prod, 2000):

test system: Hepatocyte; assay: Hepatoprotective activity in Wistar rat CCL4-damaged hepatocyte assessed as blockade of glutamic pyruvic transaminase release at 100 uM relative to control; type: functional, cell-based

Compound | Activity [%]
C[C@@H]1[C@H]2c3cc4c(cc3O[C@@]35OCOC3=CC(=O)[C@@H](C[C@H]1C)[C@@H]25)OCO4 | 75.9
COc1cc(C2Oc3cc([C@H]4Oc5cc(O)cc(O)c5C(=O)[C@@H]4O)ccc3OC2CO)ccc1O (some centres undefined) [SILIBININ] | 76.6
C[C@@H]1[C@H]2c3cc4c(cc3O[C@@]35OCOC3=CC(=O)[C@H](C[C@H]1C)[C@@H]25)OCO4 [SAUCHINONE] | 70.1
C[C@@H]1[C@H]2c3cc4c(cc3O[C@@]35OCOC3=CC(=O)[C@H](C[C@H]1C)[C@H]25)OCO4 [SAUCHINONE A] | 78.2
